In brackets after ≈: the same amount, converted by molar mass. Activity calls are given as the source filed them. No cut-off for these calls is given here.
How the values were obtained:
Acinetobacter baumannii [1] = experiment: Anti- biofilm activity against Acinetobacter baumannii assessed as inhibition of biofilm formation at 4 times MIC relative to control; type: functional; design: scale not given: the % may be the effect or the level left
Klebsiella pneumoniae [2] = experiment: Induction of morphological changes in Klebsiella pneumoniae assessed as cell lysis at 2 times MIC for 4 hrs by TEM analysis; type: functional, organism-based
Pseudomonas aeruginosa [3] = experiment: Antibacterial activity against Pseudomonas aeruginosa 27853 assessed as inhibition of bacterial growth by two fold serial dilution method; type: functional
Klebsiella pneumoniae [4] = experiment: Anti- biofilm activity against Klebsiella pneumoniae assessed as inhibition of biofilm formation at 2 times MIC relative to control; type: functional; design: scale not given: the % may be the effect or the level left
Cell membrane [5] = experiment: Induction of cytoplasmic membrane depolarization in Acinetobacter baumannii assessed as increase in fluorescence intensity at 0.5 to 4 times MIC and measured up to 100 mins by DiSC35 dye based fluorescence method; type: subcellular; settings: TDE = time-dependent effect
Klebsiella pneumoniae [6] = experiment: Anti- biofilm activity against Klebsiella pneumoniae assessed as biofilm viability at 6 times MIC relative to control; type: functional
Cell membrane [7] = experiment: Induction of outer membrane permeabilization in Klebsiella pneumoniae assessed as increase in NPN fluorescence at 4 times MIC by NPN-dye based fluorescence analysis; type: subcellular
Klebsiella pneumoniae [8] = experiment: Antibacterial activity against Klebsiella pneumoniae assessed as inhibition of bacterial growth by two fold serial dilution method; type: functional
Klebsiella pneumoniae [9] = experiment: Anti- biofilm activity against Klebsiella pneumoniae assessed as biofilm viability at 4 times MIC relative to control; type: functional
Cell membrane [10] = experiment: Induction of cytoplasmic membrane depolarization in Klebsiella pneumoniae assessed as increase in fluorescence intensity at 0.5 to 4 times MIC and measured up to 100 mins by DiSC35 dye based fluorescence method; type: subcellular; settings: TDE = time-dependent effect
Enterococcus faecalis = experiment: Antibacterial activity against Enterococcus faecalis assessed as inhibition of bacterial growth by two fold serial dilution method; type: functional
Acinetobacter baumannii [11] = experiment: Anti- biofilm activity against Acinetobacter baumannii assessed as inhibition of biofilm formation at 2 times MIC relative to control; type: functional; design: scale not given: the % may be the effect or the level left
Acinetobacter baumannii [12] = experiment: Anti- biofilm activity against Acinetobacter baumannii assessed as inhibition of biofilm formation at 1 time MIC relative to control; type: functional; design: scale not given: the % may be the effect or the level left
Acinetobacter baumannii [13] = experiment: Antioxidant activity in Acinetobacter baumannii assessed as loss of GSH activity at 1 to 8 times MIC; type: functional, organism-based
Acinetobacter baumannii [14] = experiment: Induction of ROS generation in Acinetobacter baumannii assessed as ROS accumulation at 1 to 8 times MIC by DCFH-DA dye based fluorescence assay; type: functional, organism-based; settings: DDE = dose-dependent effect
[15] = Cytotoxicity against human endothelial cells assessed as viable cells upto 40 ug/ml relative to control; type: toxicity, cell-based, Endothelial cell; settings: up to 40 µg/mL, read-out: Activity
Klebsiella pneumoniae [16] = experiment: Antioxidant activity in Klebsiella pneumoniae assessed as loss of GSH activity at 1 to 8 times MIC; type: functional, organism-based
Staphylococcus aureus [17] = experiment: Antibacterial activity against Staphylococcus aureus assessed as inhibition of bacterial growth by two fold serial dilution method; type: functional
Klebsiella pneumoniae [18] = experiment: Induction of morphological changes in Klebsiella pneumoniae assessed as appearance of broken cell membrane at 2 times MIC for 4 hrs by SEM analysis; type: functional, organism-based
Klebsiella pneumoniae [19] = experiment: Bactericidal activity against Klebsiella pneumoniae assessed as reduction in bacterial growth at MIC and measured within 2 hrs by time-kill kinetic assay; type: functional
Klebsiella pneumoniae [20] = experiment: Induction of ROS generation in Klebsiella pneumoniae assessed as ROS accumulation at 1 to 8 times MIC by DCFH-DA dye based fluorescence assay; type: functional, organism-based; settings: DDE = dose-dependent effect
Klebsiella pneumoniae [21] = experiment: Anti- biofilm activity against Klebsiella pneumoniae assessed as biofilm viability at 1 time MIC relative to control; type: functional
Escherichia coli [22] = experiment: Antibacterial activity against Escherichia coli 25922 assessed as inhibition of bacterial growth by two fold serial dilution method; type: functional
Klebsiella pneumoniae [23] = experiment: Induction of morphological changes in Klebsiella pneumoniae assessed as shrunken cell membrane at 2 times MIC for 4 hrs by SEM analysis; type: functional, organism-based
Staphylococcus aureus [24] = experiment: Antibacterial activity against Staphylococcus aureus 25923 assessed as inhibition of bacterial growth by two fold serial dilution method; type: functional
Acinetobacter baumannii [25] = experiment: Antibacterial activity against Acinetobacter baumannii assessed as inhibition of bacterial growth by two fold serial dilution method; type: functional
Acinetobacter baumannii [26] = experiment: Anti- biofilm activity against Acinetobacter baumannii assessed as biofilm viability at 4 times MIC relative to control; type: functional
Klebsiella pneumoniae [27] = experiment: Induction of morphological changes in Klebsiella pneumoniae assessed as membrane rupture at 2 times MIC for 4 hrs by TEM analysis; type: functional, organism-based
Staphylococcus aureus [28] = experiment: Antibacterial activity against methicillin-resistant Staphylococcus aureus N315 assessed as inhibition of bacterial growth by two fold serial dilution method; type: functional
Klebsiella pneumoniae [29] = experiment: Anti- biofilm activity against Klebsiella pneumoniae assessed as inhibition of biofilm formation at 1 time MIC relative to control; type: functional; design: scale not given: the % may be the effect or the level left
Klebsiella pneumoniae [30] = experiment: Anti- biofilm activity against Klebsiella pneumoniae assessed as inhibition of biofilm formation at 4 times MIC relative to control; type: functional; design: scale not given: the % may be the effect or the level left
Staphylococcus aureus [31] = experiment: Antibacterial activity against Staphylococcus aureus 29213 assessed as inhibition of bacterial growth by two fold serial dilution method; type: functional
Acinetobacter baumannii [32] = experiment: Anti- biofilm activity against Acinetobacter baumannii assessed as biofilm viability at 2 times MIC relative to control; type: functional
Acinetobacter baumannii [33] = experiment: Anti- biofilm activity against Acinetobacter baumannii assessed as biofilm viability at 1 time MIC relative to control; type: functional
Cell membrane [34] = experiment: Induction of outer membrane permeabilization in Acinetobacter baumannii assessed as increase in fluorescence intensity at 4 times MIC by NPN-dye based fluorescence analysis; type: subcellular
Cell membrane [35] = experiment: Induction of cytoplasmic membrane depolarization in Klebsiella pneumoniae assessed as increase in fluorescence intensity at 0.5 to 4 times MIC by DiSC35 dye based fluorescence method; settings: DDE = dose-dependent effect
Calf thymus DNA [36] = experiment: Binding affinity to calf thymus DNA assessed as assessed as compound-DNA complex formation by measuring red shift by UV-visible absorption spectrophotometric method; type: nucleic-acid assay; settings: Bos taurus
Acinetobacter baumannii [37] = experiment: Anti- biofilm activity against Acinetobacter baumannii assessed as biofilm viability at 6 times MIC relative to control; type: functional
Calf thymus DNA [38] = experiment: Binding affinity to calf thymus DNA assessed as reduction in fluorescence intensity of DNA-acridine orange complex by acridine orange dye based fluorescence analysis; type: nucleic-acid assay; settings: Bos taurus
Pseudomonas aeruginosa [39] = experiment: Antibacterial activity against Pseudomonas aeruginosa assessed as inhibition of bacterial growth by two fold serial dilution method; type: functional
Klebsiella pneumoniae [40] = experiment: Anti- biofilm activity against Klebsiella pneumoniae assessed as biofilm viability at 2 times MIC relative to control; type: functional
Cell membrane [41] = experiment: Induction of inner membrane damage in Klebsiella pneumoniae assessed as disruption of membrane integrity at 0.25 to 2 ug/ml by propidium iodide staining based fluorescence analysis; type: subcellular; settings: dose 0.25-2 µg/ml
Cell membrane [42] = experiment: Induction of inner membrane damage in Acinetobacter baumannii assessed as disruption of membrane integrity at 0.25 to 2 ug/ml by propidium iodide staining based fluorescence analysis; type: subcellular; settings: dose 0.25-2 µg/ml
Escherichia coli [43] = experiment: Antibacterial activity against Escherichia coli assessed as inhibition of bacterial growth by two fold serial dilution method; type: functional
[44] = Cytotoxicity against human HepG2 cells assessed as viable cells upto 40 ug/ml relative to control; type: toxicity, cell-based; settings: up to 40 µg/mL, read-out: Activity
Klebsiella pneumoniae [45] = experiment: Induction of morphological changes in Klebsiella pneumoniae assessed as cytoplasmic sparsity at 2 times MIC for 4 hrs by TEM analysis; type: functional, organism-based
Cell membrane [46] = experiment: Induction of cytoplasmic membrane depolarization in Acinetobacter baumannii assessed as increase in fluorescence intensity at 0.5 to 4 times MIC by DiSC35 dye based fluorescence method; settings: DDE = dose-dependent effect
Acinetobacter baumannii [47] = experiment: Bactericidal activity against Acinetobacter baumannii assessed as reduction in bacterial growth at 4 times MIC and measured within 2 hrs by time-kill kinetic assay relative to control; type: functional; design: scale not given: the % may be the effect or the level left
Acinetobacter baumannii [48] = experiment: Anti- biofilm activity against Acinetobacter baumannii assessed as inhibition of biofilm formation at 6 times MIC relative to control; type: functional; design: scale not given: the % may be the effect or the level left
Klebsiella pneumoniae [49] = experiment: Anti- biofilm activity against Klebsiella pneumoniae assessed as inhibition of biofilm formation at 6 times MIC relative to control; type: functional; design: scale not given: the % may be the effect or the level left
Erythrocyte = experiment: Hemolytic activity in human RBC assessed as hemolysis at 512 ug/ml; type: toxicity, cell-based; settings: dose 512 µg/ml
Acinetobacter baumannii [50] = experiment: Bactericidal activity against Acinetobacter baumannii assessed as reduction in bacterial growth at MIC and measured within 2 hrs by time-kill kinetic assay; type: functional
Klebsiella pneumoniae [51] = experiment: Bactericidal activity against Klebsiella pneumoniae assessed as reduction in bacterial growth at 4 times MIC and measured within 2 hrs by time-kill kinetic assay relative to control; type: functional; design: scale not given: the % may be the effect or the level left

## CCCCc1nc(Cl)c(C2NC(=O)NC(CN(c3cc(C)no3)S(=O)(=O)c3ccc(N)cc3)=C2C(=O)OCC)[nH]1 (centres undefined)
Acinetobacter baumannii [1]
  Activity: 58%
Klebsiella pneumoniae [2]
  Activity: Active
Pseudomonas aeruginosa [3]
  MIC: 4 µg/mL (≈ 6.76 µM)
Klebsiella pneumoniae [4]
  Activity: 66%
Cell membrane [5]
  Activity: Tde
Klebsiella pneumoniae [6]
  Activity: 36%
Cell membrane [7]
  Activity: Active
Klebsiella pneumoniae [8]
  MIC: 0.5 µg/mL (≈ 0.844 µM)
Klebsiella pneumoniae [9]
  Activity: 62%
Cell membrane [10]
  Activity: Tde
Enterococcus faecalis
  MIC: 16 µg/mL (≈ 27 µM)
Acinetobacter baumannii [11]
  Activity: 30%
Acinetobacter baumannii [12]
  Activity: 21%
Acinetobacter baumannii [13]
  Activity: Active
Acinetobacter baumannii [14]
  Activity: Dde
[15]
  viability: > 50%
Klebsiella pneumoniae [16]
  Activity: Active
Staphylococcus aureus [17]
  MIC: 2 µg/mL (≈ 3.38 µM)
Klebsiella pneumoniae [18]
  Activity: Active
Klebsiella pneumoniae [19]
  Activity: 2.5 log10CFU/ml
Klebsiella pneumoniae [20]
  Activity: Dde
Klebsiella pneumoniae [21]
  Activity: 85%
Escherichia coli [22]
  MIC: 1 µg/mL (≈ 1.69 µM)
Klebsiella pneumoniae [23]
  Activity: Active
Staphylococcus aureus [24]
  MIC: 8 µg/mL (≈ 13.5 µM)
Acinetobacter baumannii [25]
  MIC: 0.5 µg/mL (≈ 0.844 µM)
Acinetobacter baumannii [26]
  Activity: 70%
Klebsiella pneumoniae [27]
  Activity: Active
Staphylococcus aureus [28]
  MIC: 4 µg/mL (≈ 6.76 µM)
Klebsiella pneumoniae [29]
  Activity: 30%
Klebsiella pneumoniae [30]
  Activity: 82%
Staphylococcus aureus [31]
  MIC: 2 µg/mL (≈ 3.38 µM)
Acinetobacter baumannii [32]
  Activity: 83%
Acinetobacter baumannii [33]
  Activity: 87%
Cell membrane [34]
  Activity: Active
Cell membrane [35]
  Activity: Dde
Calf thymus DNA [36]
  Activity: Active
Acinetobacter baumannii [37]
  Activity: 41%
Calf thymus DNA [38]
  Activity: Active
Pseudomonas aeruginosa [39]
  MIC: 4 µg/mL (≈ 6.76 µM)
Klebsiella pneumoniae [40]
  Activity: 76%
Cell membrane [41]
  Activity: Active
Cell membrane [42]
  Activity: Active
Escherichia coli [43]
  MIC: 2 µg/mL (≈ 3.38 µM)
[44]
  viability: > 50%
Klebsiella pneumoniae [45]
  Activity: Active
Cell membrane [46]
  Activity: Dde
Acinetobacter baumannii [47]
  Activity: 66.7%
Acinetobacter baumannii [48]
  Activity: 84%
Klebsiella pneumoniae [49]
  Activity: 89%
Erythrocyte
  Activity: Non-Toxic
Acinetobacter baumannii [50]
  Activity: 2.4 log10CFU/ml
Klebsiella pneumoniae [51]
  Activity: 66.7%

## CCCCc1nc(Cl)c(C2NC(=O)NC(C)=C2C(=O)OCC)n1S(=O)(=O)c1ccccc1 (centres undefined)
Pseudomonas aeruginosa [3]
  MIC: 64 µg/mL (≈ 133 µM)
Klebsiella pneumoniae [8]
  MIC: 128 µg/mL (≈ 266 µM)
Enterococcus faecalis
  MIC: 64 µg/mL (≈ 133 µM)
Staphylococcus aureus [17]
  MIC: 64 µg/mL (≈ 133 µM)
Escherichia coli [22]
  MIC: 128 µg/mL (≈ 266 µM)
Staphylococcus aureus [24]
  MIC: 128 µg/mL (≈ 266 µM)
Acinetobacter baumannii [25]
  MIC: 64 µg/mL (≈ 133 µM)
Staphylococcus aureus [28]
  MIC: 128 µg/mL (≈ 266 µM)
Staphylococcus aureus [31]
  MIC: 256 µg/mL (≈ 532 µM)
Pseudomonas aeruginosa [39]
  MIC: 64 µg/mL (≈ 133 µM)
Escherichia coli [43]
  MIC: 64 µg/mL (≈ 133 µM)

Source: ChEMBL document CHEMBL5143590, “Dihydropyrimidinone imidazoles as unique structural antibacterial agents for drug-resistant gram-negative pathogens” (Eur J Med Chem, 2022)
